Source: patent US7192906B2, “Substituted pyrazole derivatives, production process thereof, and herbicide compositions containing the derivatives” (SDS Biotech K.K., priority 2001, dated 2007)

Key:
Type in all cases: in vivo
[1] = tested on: wheat (Triticum aestivum); test: Test Example 1 upland field foliage treatment, crop phytotoxicity; conditions: Table 4, upland field foliage treatment, index 0-5
Method: (§1) A plastic pot of 130 cm^2 was filled with upland soil. Subsequently, weed seeds of Setaria viridis, Digitaria adscendens, Chenopodium album and Stellaria media, and crop seeds of soybean (Glycine max) and wheat (Triticum aestivum), were sowed and covered with soil of about 1 cm thickness. On the 14th day after the sowing, the wettable powder prepared in Formulation Example 1 was diluted with water such that the amount of the active ingredient became 1 kg per hectare, and then uniformly applied to the plant leaf surfaces. On the 21st day after the application, observation and evaluation were carried out according to the criteria described below.
(§2) Herbicidal activity was evaluated based on the following criteria.
(§3) • 5: herbicidal effect of not less than 90%, or phytotoxicity of 90% or more • 4: herbicidal effect of not less than 70% and less than 90%, or phytotoxicity of 70% or more and less than 90% • 3: herbicidal effect of not less than 50% and less than 70%, or phytotoxicity of 50% or more and less than 70% • 2: herbicidal effect of not less than 30% and less than 50%, or phytotoxicity of 30% or more and less than 50% • 1: herbicidal effect of not less than 10% and less than 30%, or phytotoxicity of 10% or more and less than 30% • 0: herbicidal effect of not less than 0% and less than 10%, or phytotoxicity of 0% or more and less than 10%

soybean (Glycine max) = test: as above; conditions: Table 4, upland field foliage treatment, index 0-5
Method: as §1, §2, §3

Chenopodium album = test: Test Example 1 upland field foliage treatment; conditions: Table 4, upland field foliage treatment, index 0-5
Method: as §1, §2, §3

Digitaria adscendens = test: Test Example 1 upland field foliage treatment; conditions: Table 4, upland field foliage treatment, index 0-5
Method: as §1, §2, §3

Setaria viridis = test: Test Example 1 upland field foliage treatment; conditions: Table 4, upland field foliage treatment, index 0-5
Method: as §1, §2, §3

Stellaria media = test: Test Example 1 upland field foliage treatment; conditions: Table 4, upland field foliage treatment, index 0-5
Method: as §1, §2, §3

Echinochloa crusgalli = test: Test Example 3 paddy field treatment; conditions: active ingredient 1 kg per hectare, index 0-5
Method: (§4) A plastic pot of 130 cm^2 was filled with paddy soil, and soil puddling was carried out to adjust the submerged depth to 4 cm. Subsequently, seeds of Echinochloa crusgalli, Monochoria vaginalis, Ammannia multiflora and Scirpus juncoides were sowed, and rice (Oryza sative, variety: Koshihikari) of two-leaf period was transplanted by 2 rice plants of 1 stub per pot at a depth of 3 cm. On the 10th day after the transplantation, the wettable powder prepared in Formulation Example 1 was diluted with water such that the amount of the active ingredient became 1 kg per hectare, and then dropped to diffuse on the water surface. On the 21st day after the dropping, observation and evaluation were carried out according to the aforesaid criteria.
as §2, §3

Ammannia multiflora = test: Test Example 3 paddy field treatment; conditions: active ingredient 1 kg per hectare, index 0-5
Method: as §4, §2, §3

Scirpus juncoides = test: Test Example 3 paddy field treatment; conditions: active ingredient 1 kg per hectare, index 0-5
Method: as §4, §2, §3

Monochoria vaginalis = test: Test Example 3 paddy field treatment; conditions: active ingredient 1 kg per hectare, index 0-5
Method: as §4, §2, §3

Rice (Oryza sativa) = test: Test Example 3 paddy field treatment, crop phytotoxicity; conditions: active ingredient 1 kg per hectare, index 0-5; for Herbicidal activity OS (phytotoxicity to rice): paddy field treatment, transplanted rice Koshihikari, wettable powder, 21st day after the dropping; for Herbicidal activity (phytotoxicity) OS: Table 6, paddy field treatment, transplanted rice, 21st day after dropping
Method: as §4, §2, §3

[2] = paddy field treatment, wettable powder, 21st day after the dropping
[3] = Table 6, paddy field treatment, 21st day after dropping

Structure (SMILES) | Herbicidal activity (phytotoxicity) TA: Wheat (Triticum aestivum) [1] | Herbicidal activity (phytotoxicity) GM: Soybean (Glycine max) (soybean (Glycine max)) | Herbicidal activity CA: Chenopodium album (Chenopodium album) | Herbicidal activity DA: Digitaria adscendens (Digitaria adscendens) | Herbicidal activity SV: Setaria viridis (Setaria viridis) | Herbicidal activity SM: Stellaria media (Stellaria media) | Herbicidal activity EC (Echinochloa crusgalli; [2]) | Herbicidal activity AM (Ammannia multiflora; [2]) | Herbicidal activity SJ (Scirpus juncoides; [2]) | Herbicidal activity MV (Monochoria vaginalis; [2]) | Herbicidal activity OS (phytotoxicity to rice) (Rice (Oryza sativa)) | Herbicidal activity EC (Echinochloa crusgalli; [3]) | Herbicidal activity AM (Ammannia multiflora; [3]) | Herbicidal activity SJ (Scirpus juncoides; [3]) | Herbicidal activity MV (Monochoria vaginalis; [3]) | Herbicidal activity (phytotoxicity) OS (Rice (Oryza sativa))
CNC(=O)C(Cn1cc(C)c(C2CCCCC2)n1)=NOC [Compound 11] | 0 (herbicidal effect of not less than 0% and less than 10%, or phytotoxicity of 0% or more and less than 10%) | 0 (herbicidal effect of not less than 0% and less than 10%, or phytotoxicity of 0% or more and less than 10%) | 5 (herbicidal effect of not less than 90%, or phytotoxicity of 90% or more) | 5 (herbicidal effect of not less than 90%, or phytotoxicity of 90% or more) | 3 (herbicidal effect of not less than 50% and less than 70%, or phytotoxicity of 50% or more and less than 70%) | 3 (herbicidal effect of not less than 50% and less than 70%, or phytotoxicity of 50% or more and less than 70%) | 5 (herbicidal effect of not less than 90%, or phytotoxicity of 90% or more) | 5 (herbicidal effect of not less than 90%, or phytotoxicity of 90% or more) | 5 (herbicidal effect of not less than 90%, or phytotoxicity of 90% or more) | 5 (herbicidal effect of not less than 90%, or phytotoxicity of 90% or more) | 1 (herbicidal effect of not less than 10% and less than 30%, or phytotoxicity of 10% or more and less than 30%) | – | – | – | – | –
CNC(=O)C(Cn1cc(C)c(-c2ccccc2F)n1)=NOC [Compound 42] | 0 (herbicidal effect of not less than 0% and less than 10%, or phytotoxicity of 0% or more and less than 10%) | 0 (herbicidal effect of not less than 0% and less than 10%, or phytotoxicity of 0% or more and less than 10%) | 5 (herbicidal effect of not less than 90%, or phytotoxicity of 90% or more) | 5 (herbicidal effect of not less than 90%, or phytotoxicity of 90% or more) | 5 (herbicidal effect of not less than 90%, or phytotoxicity of 90% or more) | 5 (herbicidal effect of not less than 90%, or phytotoxicity of 90% or more) | 5 (herbicidal effect of not less than 90%, or phytotoxicity of 90% or more) | 5 (herbicidal effect of not less than 90%, or phytotoxicity of 90% or more) | 5 (herbicidal effect of not less than 90%, or phytotoxicity of 90% or more) | 5 (herbicidal effect of not less than 90%, or phytotoxicity of 90% or more) | 0 (herbicidal effect of not less than 0% and less than 10%, or phytotoxicity of 0% or more and less than 10%) | – | – | – | – | –
CNC(=O)C(Cn1cc(C)c(-c2ccc(C(F)(F)F)c(F)c2)n1)=NOC [Compound 87] | – | – | – | – | – | – | – | – | – | – | – | 5 (herbicidal effect of not less than 90%, or phytotoxicity of 90% or more) | 5 (herbicidal effect of not less than 90%, or phytotoxicity of 90% or more) | 5 (herbicidal effect of not less than 90%, or phytotoxicity of 90% or more) | 5 (herbicidal effect of not less than 90%, or phytotoxicity of 90% or more) | 0 (herbicidal effect of not less than 0% and less than 10%, or phytotoxicity of 0% or more and less than 10%)
CNC(=O)C(Cn1cc(C)c(-c2ccc(F)c(C(F)(F)F)c2)n1)=NOC [Compound 90] | – | – | – | – | – | – | – | – | – | – | – | 5 (herbicidal effect of not less than 90%, or phytotoxicity of 90% or more) | 5 (herbicidal effect of not less than 90%, or phytotoxicity of 90% or more) | 4 (herbicidal effect of not less than 70% and less than 90%, or phytotoxicity of 70% or more and less than 90%) | 5 (herbicidal effect of not less than 90%, or phytotoxicity of 90% or more) | 0 (herbicidal effect of not less than 0% and less than 10%, or phytotoxicity of 0% or more and less than 10%)
CNC(=O)C(Cn1cc(C)c(-c2ccc(OC)cc2OC(F)F)n1)=NOC [Compound 91] | – | – | – | – | – | – | – | – | – | – | – | 5 (herbicidal effect of not less than 90%, or phytotoxicity of 90% or more) | 5 (herbicidal effect of not less than 90%, or phytotoxicity of 90% or more) | 4 (herbicidal effect of not less than 70% and less than 90%, or phytotoxicity of 70% or more and less than 90%) | 5 (herbicidal effect of not less than 90%, or phytotoxicity of 90% or more) | 0 (herbicidal effect of not less than 0% and less than 10%, or phytotoxicity of 0% or more and less than 10%)
CON=C(Cn1cc(C)c(-c2ccccc2)n1)C(=O)N1CCCCC1 [Compound 119] | – | – | – | – | – | – | – | – | – | – | – | 3 (herbicidal effect of not less than 50% and less than 70%, or phytotoxicity of 50% or more and less than 70%) | 4 (herbicidal effect of not less than 70% and less than 90%, or phytotoxicity of 70% or more and less than 90%) | 3 (herbicidal effect of not less than 50% and less than 70%, or phytotoxicity of 50% or more and less than 70%) | 4 (herbicidal effect of not less than 70% and less than 90%, or phytotoxicity of 70% or more and less than 90%) | 0 (herbicidal effect of not less than 0% and less than 10%, or phytotoxicity of 0% or more and less than 10%)
CON=C(Cn1cc(C)c(-c2ccccc2)n1)C(=O)NNC(=O)OC [Compound 123] | – | – | – | – | – | – | – | – | – | – | – | 3 (herbicidal effect of not less than 50% and less than 70%, or phytotoxicity of 50% or more and less than 70%) | 4 (herbicidal effect of not less than 70% and less than 90%, or phytotoxicity of 70% or more and less than 90%) | 3 (herbicidal effect of not less than 50% and less than 70%, or phytotoxicity of 50% or more and less than 70%) | 4 (herbicidal effect of not less than 70% and less than 90%, or phytotoxicity of 70% or more and less than 90%) | 0 (herbicidal effect of not less than 0% and less than 10%, or phytotoxicity of 0% or more and less than 10%)
